Results on 3 molecules are retold here after PMC9827845, “Active Pharmaceutical Ingredient Uptake by Zebrafish (Danio rerio) Oct2 (slc22a2) Transporter Expressed in Xenopus laevis Oocytes” (Environmental Toxicology and Chemistry, 2022).

In data set [1] the target is T1, Oct2 (slc22a2) (Danio rerio, UniProt Q7T2C0).
T1 construct: complete Danio rerio slc22a2 cDNA clone (zgc:64076; IRBOp991A024D; oct2)
T1 sequence (Q7T2C0 1-562): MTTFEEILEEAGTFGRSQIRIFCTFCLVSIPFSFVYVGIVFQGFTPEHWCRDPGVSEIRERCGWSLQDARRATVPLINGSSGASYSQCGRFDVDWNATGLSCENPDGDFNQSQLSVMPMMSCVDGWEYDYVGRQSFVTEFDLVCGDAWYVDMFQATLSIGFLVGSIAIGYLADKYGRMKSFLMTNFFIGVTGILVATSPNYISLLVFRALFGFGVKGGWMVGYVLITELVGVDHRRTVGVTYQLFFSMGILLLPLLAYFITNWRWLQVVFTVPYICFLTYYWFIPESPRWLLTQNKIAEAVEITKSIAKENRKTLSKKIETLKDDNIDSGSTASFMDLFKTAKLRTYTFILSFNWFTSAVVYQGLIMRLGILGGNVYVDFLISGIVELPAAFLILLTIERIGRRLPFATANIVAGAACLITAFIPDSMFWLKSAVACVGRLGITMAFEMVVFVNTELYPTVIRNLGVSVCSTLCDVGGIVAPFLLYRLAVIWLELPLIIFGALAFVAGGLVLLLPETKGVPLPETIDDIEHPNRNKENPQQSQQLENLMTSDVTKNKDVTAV
Put plainly: radiolabelled uptake in Xenopus oocytes expressing zebrafish oct2 versus sham. Type of data set: cell-based.

Data set [2] deals with T1, Oct2 (slc22a2). Put plainly: inhibition of […] TEA uptake at […] in Xenopus oocytes expressing zebrafish oct2. Format: cell-based.
Substrate in data set [3]: CC(C)NCC(O)COc1cccc2ccccc12
Put plainly: cells, lysate or membranes.

Substrate in data set [4]: CNC(=C[N+](=O)[O-])NCCSCc1ccc(CN(C)C)o1
Put plainly: cells, lysate or membranes.

Turning to `CC[N+](CC)(CC)CC` [TEA, tetraethylammonium], on Oct2 (slc22a2) [1], the “radiolabelled uptake in Xenopus oocytes expressing zebrafish oct2 versus sham” value was “zebrafish oct2 when expressed in Xenopus oocytes can facilitate the transport of ranitidine, propranolol, and TEA”. As for `NC12CC3CC(CC(C3)C1)C2` [amantadine], at Oct2 (slc22a2) [2], the “inhibition of 200 μM TEA uptake at 2 mM in Xenopus oocytes expressing zebrafish” value was “Uptake of tetraethylammonium (TEA) was inhibited by propranolol, amantadine, and cimetidine”.

B1: Oct2 (slc22a2) (Danio rerio) (protein)
chain: T1 sequence (Q7T2C0 1-562)
As to B1, the results for the Michaelis constant (Km) in data set [3] and in data set [4] were 408.9 µM and 246.1 µM, respectively.
